{"source": "patent US20170027171A1", "about": "“METHOD FOR CONTROLLING PLANT DISEASES” (Nihon Nohyaku Co., Ltd., priority 2014, published 2017)", "type_in_all_cases": "in vivo", "key": {"[1]": {"tested_on": "Septoria tritici, KUK-1-21 Strain", "experiment": "Test for wheat leaf blotch, potted wheat, foliar spray before inoculation", "description": "Test for Wheat Leaf Blotch (Septoria tritici, KUK-1-21 Strain):\n(§1) The formulation produced in Formulation Example 1 was adjusted to predetermined concentrations and these prepared agrochemical liquids were applied to wheat plants in pots at a rate equivalent to 1000 L/ha with a spray gun. After the agrochemical treatment, the wheat pots were kept outdoors for 1 day or 7 days, and then spray-inoculated with wheat leaf blotch pathogen Septoria tritici (1×10^6 spores/mL). After that, the wheat pots were kept in a greenhouse, in which the conditions favored the development of the disease. Three weeks after the inoculation, the lesion area index (0-10) was determined for the evaluation of the control effect."}, "Septoria nodorum": {"tested_on": "Septoria nodorum", "experiment": "Test for wheat glume blotch, potted wheat, foliar spray before inoculation", "conditions": "wheat in pots, 1000 L/ha spray, number of lesions per leaf ten days after inoculation", "description": "Test for Wheat Glume Blotch (Septoria nodorum)\nas §1, with “nodorum (2.4×10^6” for “tritici (1×10^6”, “disease.” for “disease. Three weeks after the inoculation, the lesion area index (0-10) was determined for the evaluation of the control effect.”\nTen days after the inoculation, the number of lesions per leaf was counted for the evaluation of the control effect."}, "[2]": {"tested_on": "Pseudocercosporella herpotrichoides", "experiment": "Test for wheat eyespot, potted wheat, foliar spray before inoculation", "conditions": "wheat in pots, percentage of stems with lesions three weeks after inoculation", "description": "Test for Wheat Eyespot (Pseudocercosporella herpotrichoides)\nThe formulation produced in Formulation Example 1 was adjusted to predetermined concentrations and these prepared agrochemical liquids were applied to wheat plants in pots at a predetermined rate with a spray gun. After air-drying, the wheat pots were spray-inoculated with a spore suspension of wheat eyespot pathogen Pseudocercosporella herpotrichoides (4.2×10^6 spores/mL). After that, the wheat pots were kept in a greenhouse, in which the conditions favored the development of the disease. Three weeks after the inoculation, the percentage of stems with lesions was determined for the evaluation of the control effect."}}}
{"smiles": "O=C1C(Cl)=C(Cl)C(=O)N1c1ccc(F)cc1", "note": "[Fluoroimide]", "values": [{"measurement": "Control rate, Inoculated at 1 day post-treatment", "setting": "[1]; 62.5 ppm, wheat in pots, 1000 L/ha spray, lesion area index three weeks after inoculation", "value": 62}, {"measurement": "Control rate, Inoculated at 1 day post-treatment", "setting": "[1]; 125 ppm, wheat in pots, 1000 L/ha spray, lesion area index three weeks after inoculation", "value": 84}, {"measurement": "Control rate, Inoculated at 1 day post-treatment", "setting": "[1]; 250 ppm, wheat in pots, 1000 L/ha spray, lesion area index three weeks after inoculation", "value": 95}, {"measurement": "Control rate, Inoculated at 7 days post-treatment", "setting": "[1]; 500 ppm, wheat in pots, 1000 L/ha spray, lesion area index three weeks after inoculation", "value": 65}, {"measurement": "Effect for controlling leaf blotch (in words)", "setting": "[1]; summary of the results", "value": "highly effective"}, {"measurement": "Control rate, Inoculated at 1 day post-treatment", "setting": "Septoria nodorum; 62.5 ppm", "value": 63}, {"measurement": "Control rate, Inoculated at 1 day post-treatment", "setting": "Septoria nodorum; 125 ppm", "value": 90}, {"measurement": "Control rate, Inoculated at 1 day post-treatment", "setting": "Septoria nodorum; 250 ppm", "value": 94}, {"measurement": "Control rate, Inoculated at 1 day post-treatment", "setting": "Septoria nodorum; 500 ppm", "value": 96}, {"measurement": "Control rate, Inoculated at 7 days post-treatment", "setting": "Septoria nodorum; 500 ppm", "value": 85}, {"measurement": "Control rate, Inoculated after treatment and air-drying", "setting": "[2]; 125 ppm", "value": 56}, {"measurement": "Control rate, Inoculated after treatment and air-drying", "setting": "[2]; 250 ppm", "value": 80}, {"measurement": "Control rate, Inoculated after treatment and air-drying", "setting": "[2]; 500 ppm", "value": 95}]}
